Laboratory results as given in US10092574B2, “Inhibitors of polynucleotide repeat-associated RNA foci and uses thereof” (VALORISATION-RECHERCHE, LIMITED PARTNERSHIP, priority 2013, dated 2018).

How the values were obtained:
Assay type in all cases: cell-based, human
CUGBP1 = assay: Western blot of CUGBP1 protein levels in myoblasts; conditions: 20 μM, 7 days (FIG. 7); for reduction of CUGBP1 levels: DM1 myoblasts
Procedure: Human myoblasts were obtained from the Myosix institute associated with the Association Frangaise contre les Myopathies (AFM). Five primary myoblast lines were obtained as controls, and one line from a DM1 patient with a 3.8 Kb CTG triplet amplification corresponding to approximately 1250 CTG repeats. The human myoblasts are cultivated in HAM-F10 media (SIGMA N6635) with 15% FBS, 1% chick embryo extract, and 390 ng/ml of dexamethasone. One day before adding compounds, 2×10^5 cells were plated in 100 mm plates (for CUGBP1 western blot or RT-PCR alternative splicing assay) or 2×10^4 cells/well are seeded in 12-well plates containing 12 mm round glass coverslips (for FISH to detect RNA foci). One day after plating, media is replaced with fresh media containing the compounds at the desired concentration in this manner: the media is put in a screw-cap tube and heated at 37° C. The 20 mM compound stock in 100% DMSO is pipetted directly into the media and the tube is mixed well by inversion and gentle vortexing, and immediately overlayed on the cells. Pure DMSO is used for the control cells. Final concentrations on myoblasts are never higher than 0.5%. This procedure is repeated twice during the seven days of treatment, the media is thus replaced with fresh media containing compound every 2-3 days. Cells are collected or fixed for FISH after one week.
For Western blots, CUGBP1 was detected with the 3B1-3D11 monoclonal antibody (mAb) (SIGMA C5112) and GAPDH was detected with the 6C5 mAb (Millipore MAB374). The enhanced chemiluminescence signal (ECL) was acquired and quantified with the ChemiDoc™ MP imaging system (Bio-Rad). For alternative splicing assays, total RNA was collected with Trizol™ (Invitrogen), and 1 μg was used for reverse transcription with random primers with the RevertAid™ H Minus M-MuL RT (Fermentas) according to manufacturer's instructions. For MBNL2, PCR amplification was performed with primers 5′-[…]-3′ (SEQ ID NO:1) and 5′-[…]-3′ (SEQ ID NO:2). SERCA1 was amplified with primers 5′-[…]-3′ (SEQ ID NO:3) and 5′-[…]-3′ (SEQ ID NO:4). For TNNT2 (cardiac Troponin T), PCR was carried out with primers 5′-[…]-3′ (SEQ ID NO:5) and 5′-[…]-3′ (SEQ ID NO:6). The alternative splicing of the hnRNPA2/B1 transcript was detected with the primers 5′-[…]-3′ (SEQ ID NO:7) and 5′-[…]-3′ (SEQ ID NO:8). PCR was performed with Taq using standard conditions but the number of amplification cycles was optimized to be in the quantitative range for each gene. The products of PCR amplification were resolved on 3.5% agarose gels containing Gelred™ (Biotium) and images were acquired and quantified with the ChemiDoc™ MP imaging system (Bio-Rad). […]

MBNL2 exon 7 = assay: RT-PCR alternative splicing assay, MBNL2 exon 7; conditions: DM1 myoblasts
Procedure: Human myoblasts were obtained from the Myosix institute associated with the Association Frangaise contre les Myopathies (AFM). Five primary myoblast lines were obtained as controls, and one line from a DM1 patient with a 3.8 Kb CTG triplet amplification corresponding to approximately 1250 CTG repeats. The human myoblasts are cultivated in HAM-F10 media (SIGMA N6635) with 15% FBS, 1% chick embryo extract, and 390 ng/ml of dexamethasone. One day before adding compounds, 2×10^5 cells were plated in 100 mm plates (for CUGBP1 western blot or RT-PCR alternative splicing assay) or 2×10^4 cells/well are seeded in 12-well plates containing 12 mm round glass coverslips (for FISH to detect RNA foci). […]
For Western blots, CUGBP1 was detected with the 3B1-3D11 monoclonal antibody (mAb) (SIGMA C5112) and GAPDH was detected with the 6C5 mAb (Millipore MAB374). The enhanced chemiluminescence signal (ECL) was acquired and quantified with the ChemiDoc™ MP imaging system (Bio-Rad). […] The alternative splicing of the hnRNPA2/B1 transcript was detected with the primers 5′-[…]-3′ (SEQ ID NO:7) and 5′-[…]-3′ (SEQ ID NO:8). PCR was performed with Taq using standard conditions but the number of amplification cycles was optimized to be in the quantitative range for each gene. […]

Normal or DM1 myoblasts = assay: Cytotoxicity assay (Hoescht 33342 / propidium iodide, High Content Screening microscope); conditions: for cellular toxicity: 7 days (FIG. 10)
Procedure: The cellular toxicity of compounds 15 and 32, and their analogs was also measured using a validated cytotoxicity assay. Normal or DM1 myoblasts were treated with 20 μM of compound or DMSO. The ratio of viable cells was measured with a High Content Screening microscope in live cells treated with Hoescht 33342 (labels all cells) and propidium iodide (labels dead cells). The total number of cells was counted and the number of dead cells was subtracted to obtain the number of viable cells, which is presented as a ratio (drug-treated versus DMSO-treated cells). The percentage of dead cells was also measured using propidium iodide.
The cellular toxicity of the compounds was also measured in a dose-response assay. In this assay, normal (M908) and patient (DM1) myoblasts were treated for 7 days with compound 32 or 196 at concentrations varying from 5 to 60 μM. Cell number and cell death was quantified by High Content Screening microscope, as specified above. […] Indeed, the ratio of viable cells at 20 μM of compound 15 is 0.22 (FIG. 10), while for compound 196, an analogue of compound 15, it is above 1 at the same concentration (FIG. 14C).

Compound	reduction of CUGBP1 levels (CUGBP1) [%]	change of CUGBP1 levels in WT cells (CUGBP1; WT myoblasts)	inclusion of MBNL2 exon 7 (MBNL2 exon 7; 20 μM, 7 days, from 40% (FIG. 8D)) [%]	cellular toxicity (Normal or DM1 myoblasts; 20 μM)	ratio of viable cells (drug-treated versus DMSO-treated) (Normal or DM1 myoblasts; 20 μM, 7 days (FIG. 10, FIG. 14C))	dose-response effect on splicing of MBNL2 mRNA (MBNL2 exon 7; 5 to 60 μM, 7 days (FIG. 12A))	main phenotype at higher concentrations (Normal or DM1 myoblasts; normal (M908) and DM1 myoblasts, 7 days, 5 to 60 μM)	cytotoxicity in dose-response assay (Normal or DM1 myoblasts; normal (M908) and DM1 myoblasts, 7 days, concentration of 20 μM and below (FIGS. 14A-D))
CCCN(CCC)S(=O)(=O)c1ccc(NS(=O)(=O)Cc2ccccc2)cc1 [Compound 15]	85	does not change	25	some toxicity	0.22	–	–	–
CCCc1c(C(=O)N(Cc2ccccc2)Cc2cccs2)cnn1-c1ccccc1 [Compound 32]	30	–	–	little toxicity	–	clear dose-response effect	cytostatic effect	little cytotoxicity
